Test systems include OVCAR-5; SN12C; SK-MEL-2; NCI-H522; ACHN; SF-539; TK-10; HOP-62; HL-60; HCT-15; RPMI-8226; U-251; UO-31; NCI/ADR-RES; A498; UACC-257; SK-MEL-5; HT-29; UACC-62; MDA-MB-435.
Assay in all cases: NCI anticancer screen, dose series, 48 h

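The compound was tested at five concentrations on cells cultured in 96-well plates, with a 48-hour exposure period. GI50 = concentration required for 50% inhibition of growth.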 Active and inactive are the calls of the source. Rule as the data show it: active = GI50 up to about 1.1 µM and inactive = higher. Some results are limits rather than exact numbers.

As to `CC(C)(C)C(=O)C(Cc1ccccc1)C(=O)C(C)(C)C`, the GI50 was > 100 µM (inactive) in the assay with OVCAR-5; > 100 µM (inactive) in the assay with SN12C; > 100 µM (inactive) with SK-MEL-2; 98.4 µM (inactive) in the assay on NCI-H522; > 100 µM (inactive) with ACHN; > 100 µM (inactive) in the assay on SF-539. For the same molecule, the GI50 in the assay on TK-10 is > 100 µM (inactive); with HOP-62 it was > 100 µM (inactive); in the assay on HL-60, 30.5 µM (inactive); in the assay with HCT-15, > 100 µM; in the assay on RPMI-8226 it was 37.4 µM (inactive); with U-251 it was > 100 µM (inactive). Further, the GI50 with UO-31 is 81.7 µM (inactive); with NCI/ADR-RES, 51.6 µM (inactive); in the assay with A498, > 100 µM (inactive); in the assay with UACC-257, > 100 µM (inactive); with SK-MEL-5, > 100 µM (inactive); in the assay with HT-29, 39.4 µM (inactive).
Consider `COc1ccc(/C=C2\CSC/C(=C\c3ccc(OC)c(OC)c3OC)C2=O)c(OC)c1OC`, for which the GI50 with OVCAR-5 is > 100 µM (inactive); in the assay with SN12C, 24.2 µM (inactive); with SK-MEL-2, 54.6 µM (inactive); with ACHN, 16.9 µM (inactive); with SF-539 it was 26.4 µM (inactive); with TK-10, 31.6 µM (inactive). The GI50 with HOP-62 is 60.8 µM (inactive); with HL-60 it was 29.2 µM (inactive); in the assay on HCT-15 it was 25.6 µM; in the assay with RPMI-8226 it was 16.4 µM (inactive); with U-251 it was 39.8 µM (inactive); with UO-31 it was > 100 µM (inactive). Besides, the GI50 was 23.1 µM (inactive) in the assay on NCI/ADR-RES; 42.3 µM (inactive) in the assay on UACC-257; 28.3 µM (inactive) in the assay with SK-MEL-5; 14.9 µM (inactive) with UACC-62; 28.8 µM (inactive) in the assay on HT-29.
As to `CCOC(=O)c1c(-c2ccc(OC)cc2)c(C#N)c(=S)n(C2OC(COC(C)=O)C(OC(C)=O)C(OC(C)=O)C2OC(C)=O)c1-c1ccccc1` (centres undefined), the GI50 in the assay on OVCAR-5, with SN12C, with SK-MEL-2, with ACHN, with SF-539 and in the assay with TK-10 was > 100 µM (inactive) throughout. Besides, the GI50 in the assay with HOP-62 was > 100 µM (inactive); with MDA-MB-435, > 100 µM (inactive); with HL-60, > 100 µM (inactive); in the assay on HCT-15, > 100 µM; with RPMI-8226 it was > 100 µM (inactive); with U-251, > 100 µM (inactive). Also, the GI50 was > 100 µM (inactive) in the assay with UO-31; > 100 µM (inactive) in the assay on NCI/ADR-RES; > 100 µM (inactive) in the assay on UACC-257; 40.6 µM (inactive) in the assay with SK-MEL-5; > 100 µM (inactive) with UACC-62; > 100 µM (inactive) with HT-29.
For `S=C1CCSc2c(ccc3ccccc23)N1`, the GI50 in the assay with OVCAR-5 was > 100 µM (inactive); with SN12C it was > 100 µM (inactive); in the assay with NCI-H522 it was 58.5 µM (inactive); with ACHN, > 100 µM (inactive); with TK-10 it was > 100 µM (inactive); with HOP-62 it was 41.4 µM (inactive). Further, the GI50 in the assay with MDA-MB-435 was > 100 µM (inactive); in the assay on HL-60, 33.2 µM (inactive); in the assay on HCT-15 it was > 100 µM; in the assay on U-251, > 100 µM (inactive); with UO-31, > 100 µM (inactive); in the assay with NCI/ADR-RES, > 100 µM (inactive). Besides, the GI50 with UACC-257 was > 100 µM (inactive); in the assay with SK-MEL-5, > 100 µM (inactive); in the assay on UACC-62 it was 93.8 µM (inactive); in the assay on HT-29, > 100 µM (inactive).
